From patent US20130310440A1, “METHOD FOR TREATING NON-SMALL CELL LUNG CANCER” (TEVA PHARMACEUTICAL INDUSTRIES LTD., priority 2012, published 2013)
Like-named read-outs stand apart in the source and are kept apart here. In the oligonucleotide strings, read from the 5' end, every base follows the letter of its sugar. An asterisk marks phosphorothioate; unmarked linkages are phosphodiester. Other units and linkages are bracketed, terminal groups are in braces. A string of capitals states the bases alone. e = 2'-O-(2-methoxyethyl) (MOE); [5mC] = 5-methylcytosine; d = 2'-deoxy (DNA)

Columns and labels:
[1] = biological target: CYP3A4 (Homo sapiens, UniProt P08684); conditions: cited from earlier work
Chain of CYP3A4 (P08684 whole entry): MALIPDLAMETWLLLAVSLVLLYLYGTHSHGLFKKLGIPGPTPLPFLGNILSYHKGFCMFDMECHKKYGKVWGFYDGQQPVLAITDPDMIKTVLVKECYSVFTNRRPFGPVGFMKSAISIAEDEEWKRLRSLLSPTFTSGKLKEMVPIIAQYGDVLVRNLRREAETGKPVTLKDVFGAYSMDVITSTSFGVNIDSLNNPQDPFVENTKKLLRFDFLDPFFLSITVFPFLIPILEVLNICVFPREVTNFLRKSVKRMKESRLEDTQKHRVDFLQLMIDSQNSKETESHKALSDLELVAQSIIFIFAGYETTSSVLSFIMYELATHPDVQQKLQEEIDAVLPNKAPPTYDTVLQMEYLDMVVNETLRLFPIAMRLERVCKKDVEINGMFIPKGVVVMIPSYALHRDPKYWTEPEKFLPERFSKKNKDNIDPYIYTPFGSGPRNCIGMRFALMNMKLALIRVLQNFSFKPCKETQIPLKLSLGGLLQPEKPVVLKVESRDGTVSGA

[2] = cited from earlier work
[3] = system: NSCLC; conditions: patients treated with docetaxel in the 2nd line setting; cited from earlier work
[4] = human, in vivo; cited from earlier work
[5] = system: stage IIIB or IV NSCLC; test: Phase 1-2 study of weekly custirsen plus a gemcitabine/platinum-based regimen: survival by serum clusterin; assay type: in vivo, human; conditions: for median survival time: plus gemcitabine/platinum
Description: The relationship between serum clusterin levels and the duration of individual survival was evaluated during a phase 1-2 study of weekly custirsen plus a gemcitabine/platinum-based regimen in patients with stage IIIB or IV NSCLC. Not all of the patients in this study had baseline levels of clusterin measured. However, starting with N=69 subjects with measured baseline clusterin levels, fitting the Cox proportional hazards (PH) model with baseline clusterin as sole predictor gives p=0.10; the coefficient is positive, so that higher clusterin is associated with increased survival risk. Among the N=55 subjects who also had post-baseline data collected, fitting the same PH model gives p=0.05, again with positive coefficient.
A careful search for possible cutpoints, using all N=69 subjects with baseline clusterin levels, produced 71 μg/mL as a strong candidate.
Among all N=69 subjects with a baseline clusterin level, there were […] with clusterin ≦71 μg/mL (median survival time was 18.8 months), and N=26 subjects with baseline clusterin >71 μg/mL (median survival time was 10.2 months); the log-rank p-value=0.004. Removing the N=14 early discontinuers leaves N=35 subjects with baseline clusterin ≦71 μg/mL (median survival time was 28.7 months), and N=20 subjects with baseline clusterin >71 μg/mL (median survival time was 12.2 months); the log-rank p-value=0.0002.
To further assess the relevance of baseline clusterin as a predictor of survival, data from the study were further segregated based on average and minimum clusterin levels achieved during treatment.

[6] = system: clusterin; conditions: cited from earlier work
[7] = system: Advanced or Metastatic (Stage IV) Non Small Cell Lung Cancer; test: Phase III study: custirsen plus docetaxel versus docetaxel, second line (Example 3); assay type: in vivo, human
From the text: A Multinational, Randomized, Open-Label Phase III Study of Custirsen (TV-1011/OGX-011) In Combination With Docetaxel Versus Docetaxel As A Second-Line Treatment In Patients with Advanced or Metastatic (Stage IV) Non Small Cell Lung Cancer.
Patients randomized to the custirsen arm (Arm A) have 3 doses of custirsen administered in a 5 to 9 day Loading Dose Period prior to Day 1 of Cycle 1. Patients in Arm A receive custirsen on Days 1, 8 and 15, and docetaxel on Day 1 of the 21-day cycles. Patients in Arm B receive only docetaxel on Day 1 of the 21-day cycles. Patients randomized to both arms have 21-day chemotherapy cycles until disease progression, unacceptable toxicity, withdrawal of consent or protocol specified parameters to stop treatment.
After a screening period of up to 28 days, patients are randomized 1:1 to receive either docetaxel and custirsen (Arm A) or docetaxel (Arm B). Randomization is stratified by gender (male vs. female), NSCLC histology (squamous vs. non-squamous), best overall response to the first-line platinum-based therapy (SD/CR/PR vs. PD) and ECOG PS (0 vs. 1) to minimize imbalance at randomization. Patients randomized to Arm A receive 3 doses of custirsen administered in a 5 to 9 day Loading Dose Period prior to Day 1 of Cycle 1. Following the Loading Dose period, patients in Arm A receive custirsen on Days 1, 8 and 15, and docetaxel on Day 1 of the 21-day cycle. Patients in Arm B receive only docetaxel on Day 1 of the 21-day cycle. Patients randomized to both study arms have 21-day chemotherapy cycles until disease progression, unacceptable toxicity, withdrawal from study treatment, or protocol specified parameters to stop treatment. Patients who are removed from study treatment for any reason other than disease progression or death are followed for documented radiological disease progression. All patients who discontinued study treatment are followed to collect further anticancer treatment and survival information until death, loss to follow-up, withdrawal of consent, or up to 12 months after the end of treatment visit for the last patient on the study, whichever comes first.
Tumor response to study treatment and disease progression are based on the criteria proposed by the Response Evaluation Criteria in Solid Tumors (RECIST) guideline (version 1.1). All patients undergo CT or MRI scans of the chest and upper abdomen, as well as any other areas clinically indicated, at screening, then every 6 weeks, starting at week 8 after randomization until disease progression. Tumor measurement is also performed during the end of treatment visit if it is not done within the previous 6 weeks. Patients who discontinue study treatment for reasons other than disease progression continue to have tumor measurements per RECIST v1.1 until disease progression, start of new anticancer therapy, withdrawal of consent, lost to follow-up, or death, whichever occurs first. Assessment of these scans is carried out in a blinded fashion, by a Central Imaging Lab designated by the Sponsor.
Adverse events and concomitant medications are collected throughout the study up to 28 days after the last dose of study treatment. Medical history is assessed, documented results of EGFR and KRAS mutation status are collected, if available, and an electrocardiogram is performed at screening. Physical examination, assessment of the ECOG Performance Status, vital signs, and laboratory evaluations are conducted at screening and throughout the study.
The general health status, as reported by the patients, are assessed by the Functional Assessment of Cancer Therapy-Lung (FACT-L) questionnaire.
Study Agent: Three loading doses of custirsen 640 mg IV over 2 hours administered in 5 to 9 days prior to Day 1 of Cycle 1, then custirsen 640 mg IV over 2 hours on Days 1, 8 and 15 of a 21-day cycle.
Chemotherapy: Docetaxel 75 mg/m^2 IV over 1 hour on Day 1 of a 21-day cycle. […]

[8] = system: Stage IV Non-Squamous Non-Small Cell Lung Cancer; test: Phase III study: paclitaxel/carboplatin with or without custirsen (Examples 1 and 2); assay type: in vivo, human
From the text: Subjects randomized to the custirsen arm first receive three doses of custirsen in a 5 to 9 day loading dose period prior to Day 1 of Cycle 1. Subjects randomized to both study arms have 21-day chemotherapy cycles until disease progression, unacceptable toxicity, or completion of 6 cycles; however, subjects randomized to the custirsen arm also receive weekly doses of custirsen starting at Day 1 of each of the 21-day chemotherapy cycles until disease progression, unacceptable toxicity, or completion of all 6 cycles.
This is a randomized, open-label, sponsor-blinded multinational trial. Treatment consists of paclitaxel/carboplatin/custirsen vs. paclitaxel/carboplatin, which compose the two arms of the study.
After a screening period of up to 28 days, subjects are randomly assigned with equal probability to the two arms. Stratified randomization is used in order to minimize between-arm imbalance over four stratification factors: Gender, Eastern Cooperative Oncology Group (ECOG) performance status (0 vs. 1), Smoking status (former/current smoker vs. never-smoker) and Geographical Region (North America, Europe and Southeast Asia).
Subjects randomized to the custirsen arm have a 5 to 9 day loading dose period prior to Day 1 of Cycle 1. […] Subjects who are removed from study treatment for any reason other than disease progression or death are followed for documented disease progression. Once disease progression is documented, subjects enter a survival follow-up phase during which data is collected regarding further cancer treatment and their survival status.
Tumor response to study treatment and disease progression is based on the criteria proposed by the Response Evaluation Criteria in Solid Tumors (RECIST) 1.1 guidelines. All subjects undergo CT or MRI scans of the chest and upper abdomen, as well as any other areas clinically indicated, at screening, then every 6 weeks, starting at week 8 for the first 26 weeks (week 8, 14, 20 and 26) and then every 12 weeks after the week 26 scan until disease progression. These time points are kept within a window of +one week, regardless of the treatment schedule. The week 26 scan is performed as scheduled, regardless of whether the patient is still in the treatment period (i.e. due to treatment delays) or has already completed the end of treatment visit. Once a patient is discontinued from study treatment for documented disease progression, scanning is no longer required. Assessment of these scans is carried out in a blinded fashion, by a Central Imaging Lab.
Adverse events are recorded at each visit during the study and 28 days after the last dose of study treatment. Medical history is assessed at screening and an electrocardiogram is performed. Physical examination, assessment of the ECOG performance status, vital signs and laboratory evaluations are conducted at screening and throughout the study. Adverse events are recorded from when a subject is signed the Informed Consent Form and throughout the study, until the end of the treatment visit (28 days following last dose). They are reviewed and updated at each subsequent visit and during any phone contact with the subject.
The general health status, as reported by the subjects is assessed by the EuroQoL (EQ-5D) and FACT-L questionnaires. Medical resource utilization is also compared between the treatment arms. The EQ-5D is a standardized instrument for use as a measure of health outcome. Applicable to a wide range of health conditions and treatments, it provides a simple descriptive profile and a single index value for health status that can be used in the clinical and economic evaluation of health care as well as population health surveys. EQ-5D is designed for self-completion by subjects. In this study the instrument is self-administrated.
640 mg in 250 mL normal saline IV over 2 hours.
Carboplatin AUC 6.0 mg/ml/min IV over 30 minutes.
The primary outcome measure is overall survival (OS). […]

[9] = system: cancerous human prostate, breast, ovarian, lung, renal, bladder, and melanoma cells; conditions: cited from earlier work
[10] = in vivo
Description: Three doses of 640 mg custirsen are administered IV during the Loading Dose Period (Days −9 to −1). There is at least one “non-infusion” day between each administration of custirsen (i.e. every other day) during the Loading Dose Period and between the third loading dose of custirsen and Day 1 of Cycle 1. The day prior to Day 1 of Cycle 1 (Day 0) is a “no treatment” day. There are no more than 4 days between the last loading dose and Day 1 of Cycle 1. A common schedule is to give the three loading doses of custirsen on Monday, Wednesday and Friday with Day 1, Cycle 1 starting on the following Monday. Up to nine days are allowed for completing the three loading doses prior to Day 0 to account for clinic visits, weekends, and holidays. Subjects receive each dose of custirsen as a 2 hour infusion.

In the case of CC(=O)O[C@@]12CO[C@@H]1C[C@H](O)[C@@]1(C)C(=O)[C@H](O)C3=C(C)[C@@H](OC(=O)[C@H](O)[C@@H](NC(=O)OC(C)(C)C)c4ccccc4)C[C@@](O)([C@@H](OC(=O)c4ccccc4)[C@H]21)C3(C)C [Docetaxel], the CYP3A4 substrate status [1] is listed as “CYP3A4 substrate”, the “grade 4 neutropenia (<500 cells/mm^3), patients affected” value ([2]; 60 mg/m^2) is listed as 75% and the “grade 4 neutropenia (<500 cells/mm^3), patients affected” value ([2]; 100 mg/m^2) is listed as 85%. The “Neutropenia (<2,000 neutrophils/mm3), patients affected” value ([2]; 60-100 mg/m^2) was “virtually all patients”, the “incidence of treatment-related mortality” value ([2]; abnormal liver function, higher doses, or NSCLC with prior platinum-based chemotherapy, single agent 100 mg/m^2) was “increased” and the “most common side effects” value ([2]; human, in vivo) was “infections, neutropenia, anemia, febrile neutropenia, hypersensitivity, thrombocytopenia, neuropathy, dysgeusia, dyspnea, constipation, anorexia, nail disorders, fluid retention, asthenia, pain, nausea, diarrhea, vomiting, mucositis, alopecia, skin reactions and myalgia”. For the same molecule, the “median PFS” value [3] was “about 3 months”.

In the case of N.N.O=C([O-])C1(C(=O)[O-])CCC1.[Pt+2] [carboplatin, Carboplatin], the major dose-limiting toxicity [4] is listed as “Bone marrow suppression”.

For “custirsen: anti-clusterin antisense oligonucleotide CAGCAGCAGAGTCTTCATCAT (Seq. ID No.: 1), phosphorothioate backbone, 2′-O-methoxyethyl at nucleotides 1-4 and 18-21, 5-methylcytosines at 1, 4, 19 (antisense e[5mC]*eA*eG*e[5mC]*dA*dG*dC*dA*dG*dA*dG*dT*dC*dT*dT*dC*dA*eT*e[5mC]*eA*eT; listed as Homo sapiens)”, the “probability of extended survival by baseline and on-treatment clusterin” value ([5]; low baseline clusterin (71 μg/mL cutpoint) and low levels during therapy (33 μg/mL average or 30 μg/mL minimum cutpoint)) was “greatest probability of extended survival”, the median survival time ([5]; all subjects with baseline clusterin level, clusterin >71 μg/mL (N=26)) was 10.2 months and the median survival time ([5]; all subjects with baseline clusterin level, clusterin ≦71 μg/mL (N=45)) was 18.8 months. The median survival time ([5]; early discontinuers removed, baseline clusterin >71 μg/mL (N=20)) was 12.2 months, the median survival time ([5]; early discontinuers removed, baseline clusterin ≦71 μg/mL (N=35)) was 28.7 months and the expression of clusterin [6] was “potently reduces the expression of clusterin”. The overall survival ([7]; Arm A (custirsen+docetaxel) compared to Arm B (docetaxel)) was “prolonged survival”, the progression free survival ([7]; Arm A compared to Arm B) was “increased” and the “proportion of subjects surviving free of progression for at least 14 weeks” value ([7]; Arm A compared to Arm B) was “statistically significant higher proportion”. For the same molecule, the quality of life ([7]; Arm A compared to Arm B) was “improves”, the “symptoms of NSCLC (chest pain, pleural effusions, pulmonary edema, dyspnea, hemoptysis)” value ([7]; Arm A compared to Arm B) was “occasionally improve” and the safety and tolerability ([7]; custirsen 640 mg IV + docetaxel 75 mg/m^2 (Arm A)) was “safe and well tolerated”. The overall survival ([8]; Arm A (custirsen+paclitaxel/carboplatin) compared to Arm B (paclitaxel/carboplatin)) was “prolonged survival”, the progression free survival ([8]; Arm A compared to Arm B) was “increased” and the “proportion of subjects surviving free of progression for at least 14 weeks” value ([8]; Arm A compared to Arm B) was “statistically significant higher proportion”. The quality of life ([8]; Arm A compared to Arm B) was “improves”, the “symptoms of NSCLC (chest pain, pleural effusions, pulmonary edema, dyspnea, hemoptysis)” value ([8]; Arm A compared to Arm B) was “occasionally improve” and the “survival by baseline serum clusterin” value ([8]; Arm A patients, baseline clusterin below 71 μg/mL versus above 71 μg/mL) was “tend to survive longer”. For the same molecule, the safety and tolerability ([8]; custirsen 640 mg IV + paclitaxel/carboplatin (Arm A)) was “safe and well tolerated”, the apoptosis [9] was “facilitates apoptosis” and the “sensitization of cancer cells to chemotherapy” value [9] was “sensitizes”. For the same molecule, the “grade 1-2 constitutional symptoms (e.g., fever and chills), subjects affected” value [10] was 50-60%.
